Measurements: patent US20070072810A1, “Agent for treating diabetes” (Takeda Pharmaceutical Company, Limited, priority 2003, published 2007)

Columns and labels:
[1] = test system: N-STZ-1.5 rat (type 2 diabetes model); assay: Oral glucose loading in N-STZ-1.5 rats after 4 weeks of methylcellulose (Group M) or glibenclamide (Group G) (Experimental Example 2); assay type: in vivo; details: for Increment of plasma insulin level / Increment of plasma glucose level: oral glibenclamide 10 mg/kg, mean, n=6; for Increment of plasma insulin level: 10 minutes after oral glucose 1 g/kg (from 0 to 60 minutes after sugar loading); for Increment of plasma glucose level: 60 minutes after oral glucose 1 g/kg; for plasma glucose level-lowering effect (in words): summary of Table 4; for plasma insulin level-elevating effect (in words): summary of Table 5
Description: (§1) Streptozocin (STZ) (120 mg/kg bodyweight) was administered to a 1.5-day-old male WKY rat to obtain a type 2 diabetes model, N-STZ-1.5 rat.
N-STZ-1.5 rats (male, 24 animals) prepared in Experimental Example 1 were divided into 4 groups (6 animals each), of which 2 groups (hereinafter sometimes referred to as Group M) and the remaining 2 groups (hereinafter sometimes referred to as Group G) received orally a 0.5% methylcellulose suspension and glibenclamide (10 mg/kg bodyweight) respectively, for 4 weeks. After repeated administration for 4 weeks, one Group M and one Group G (control groups) received orally a 0.5% methylcellulose suspension and the other Group M and the other Group G received orally glibenclamide (10 mg/kg bodyweight).
Then, each rat received orally 1 g/kg bodyweight of glucose solution. Before administration of glucose solution and 10 and 60 minutes after the administration, blood samples were taken from the caudal vein of the rat and then the plasma glucose level and the plasma insulin level were determined.
The plasma glucose level and the plasma insulin level were determined in the same manner as in Experimental Example 1.
The increment of plasma glucose level 60 minutes after administration of glucose solution (from 0 to 60 minutes after sugar loading) and the increment of plasma insulin level 10 minutes after administration of glucose solution (from 0 to 60 minutes after sugar loading) are shown in Table 4 and Table 5, respectively. The values in the tables are mean values (n=6).

[2] = test system: N-STZ-1.5 rat (model of type 2 diabetes with sulfonylurea secondary failure); assay: Oral glucose loading in N-STZ-1.5 rats with sulfonylurea secondary failure (Experimental Example 1); assay type: in vivo; details: for Increment of plasma insulin level: rats pretreated with glibenclamide for 4 weeks; for plasma glucose level-lowering effect (in words) / plasma insulin level-elevating effect (in words): type 2 diabetic rat with sulfonylurea secondary failure; for plasma glucose level-lowering effect (in words): summary of Table 1; for plasma insulin level-elevating effect (in words): summary of Table 2 and Table 3
Description: as §1
N-STZ-1.5 rats (male, 24 animals) received orally glibenclamide (10 mg/kg bodyweight/day) for 4 weeks to become a model of type 2 diabetes with sulfonylurea secondary failure. Then, the rats were divided into 4 groups of Groups A to D (6 animals each).
Then, each rat received orally 1 g/kg bodyweight of glucose solution. Before administration of glucose (before and after administration of the test compound) and 10 and 60 minutes after administration of glucose solution, blood samples were taken from the caudal vein of the rat and then the plasma glucose level and the plasma insulin level were determined.
The plasma glucose level was determined by an enzymatic method using L type WakoGlu2 (trade name, Wako Pure Chemical Industries, Ltd.), and the plasma insulin level was determined by radioimmunoassay using Shionoria Insulin Kit (trade name, Shionogi & Co., Ltd.).
The increment of plasma glucose level 60 minutes after administration of glucose solution (from 0 to 60 minutes after sugar loading); the increment of plasma insulin level 10 minutes after administration of glucose solution (from before administration of the test compound to 10 minutes after sugar loading); and the increment of plasma insulin level 10 minutes after administration of glucose solution (from 0 to 60 minutes after sugar loading) are shown in Table 1, Table 2 and Table 3, respectively. The values in the tables are mean values (n=6).

[3] = Group G (glibenclamide 10 mg/kg for 4 weeks)
[4] = Group M (0.5% methylcellulose for 4 weeks)
[5] = 10 minutes after oral glucose 1 g/kg (from before administration of the test compound to 10 min after sugar loading), oral glibenclamide 10 mg/kg, nateglinide 50 mg/kg, Compound A 3 mg/kg, mean, n=6

SMILES | Increment of plasma insulin level [1, 3] [μU/ml] | Increment of plasma glucose level [1, 3] [mg/dL] | plasma glucose level-lowering effect (in words) ([1]; Group G) | plasma insulin level-elevating effect (in words) ([1]; Group G) | Increment of plasma insulin level [1, 4] [μU/ml] | Increment of plasma glucose level [1, 4] [mg/dL] | plasma glucose level-lowering effect (in words) ([1]; Group M) | plasma insulin level-elevating effect (in words) ([1]; Group M) | Increment of plasma insulin level [2, 5] [μU/ml] | plasma glucose level-lowering effect (in words) [2] | plasma insulin level-elevating effect (in words) [2] | Increment of plasma insulin level ([2]; 10 minutes after oral glucose 1 g/kg (from 0 to 60 minutes after sugar loading), oral glibenclamide 10 mg/kg, nateglinide 50 mg/kg, Compound A 3 mg/kg, mean, n=6) [μU/ml] | Increment of plasma glucose level ([2]; 60 minutes after oral glucose 1 g/kg (0 to 60 min after sugar loading), rats pretreated with glibenclamide 10 mg/kg/day for 4 weeks, oral glibenclamide 10 mg/kg, nateglinide 50 mg/kg, Compound A 3 mg/kg, mean, n=6) [mg/dL]
COc1ccc(Cl)cc1C(=O)NCCc1ccc(S(=O)(=O)NC(=O)NC2CCCCC2)cc1 [glibenclamide] | 22.76 | 180.65 | the effect was not shown | the effect was not shown | 49.70 | 51.72 | showed plasma glucose level-lowering effect | showed plasma insulin level-elevating effect | 18.03 | no plasma glucose level-lowering effect | hardly plasma insulin level-elevating effect |  | 
CC(C)[C@H]1CC[C@H](C(=O)N[C@H](Cc2ccccc2)C(=O)O)CC1 [nateglinide] |  |  |  |  |  |  |  |  | 18.76 | no plasma glucose level-lowering effect | hardly plasma insulin level-elevating effect | 16.78 | 185.95
